These results are taken from patent US20260176289A1, “SMALL MOLECULE INHIBITORS OF KRAS PROTEINS” (Merck Sharp & Dohme LLC, priority 2022, published 2026).

One experiment concerns MKN-1 cells. The experiment in a line: Cellular phospho-ERK assay, MKN-1 cells (amplified wild-type KRAS). To be noted: Homo sapiens, read-out: MKN1 pERK IC50. The experiment is classed as cell-based. In outline:
(§1)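 p-ERK/total ERK ratio, measured by AlphaLISA SureFire Ultra multiplex in lysates, was fitted to a 4-parameter logistic model for IC50. Compound exposure was 2 h at 37° C, 5% CO2, 10-point 1:3 dilutions from 30 μM final, on cells plated the previous night.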

The test system of the next experiment is AsPC-1 cells. The experiment in a line: Cellular phospho-ERK assay, AsPC-1 cells (homozygous KRAS-G12D). Type of experiment: cell-based. To be noted: Homo sapiens, ASPC1, 2 h, read-out: AsPC1 pERK IC50. In outline:
as §1

The test system of a further experiment is SW620 cells. The experiment in a line: Cellular phospho-ERK assay, SW620 cells (homozygous KRAS-G12V). Type of experiment: cell-based. To be noted: Homo sapiens, read-out: SW620 pERK IC50. In outline:
as §1

The next experiment addresses KRAS-WT (Homo sapiens, UniProt P01116). The experiment in a line: SOS-catalyzed nucleotide exchange assay (Procedure A, TR-FRET), KRAS-WT. The experiment is classed as biochemical. To be noted: nucleotide exchange, read-out: KRAS WT GNE IC50. In outline: (§2)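 Compounds (10-point, 3-fold) were preincubated 60 min at room temperature with a biotinylated RAS/Bodipy-GDP/Tb-streptavidin TR-FRET complex. Exchange was started with human SOS plus 3 mM GTP. RAS/SOS: G12C 3/40 nM, WT 1/40 nM, NRAS 1.25/40 nM (60 min); G12V 1.25/160 nM (90 min). The 520/495 ratio was fit four-parameter.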

A further experiment deals with KRAS-G12V (Homo sapiens, UniProt P01116, G12V). As to the kind of experiment: SOS-catalyzed nucleotide exchange assay (Procedure A, TR-FRET), KRAS-G12V. The experiment is classed as biochemical. To be noted: nucleotide exchange, read-out: KRAS G12V GNE IC50. In outline: as §2
In another experiment the target is KRAS-G12D (Homo sapiens, UniProt P01116, G12D). As to the kind of experiment: SOS-catalyzed nucleotide exchange assay (Procedure A, TR-FRET), KRAS-G12D. Type of experiment: biochemical. To be noted: nucleotide exchange, read-out: KRAS G12D GNE IC50. In outline:
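Signal ratio (520/495 nm, excitation 340 nm) reports Bodipy-GDP retention on biotinylated RAS after SOS-catalyzed exchange with 3 mM GTP. SOS was 40 nM, except 160 nM for G12V. Room-temperature exchange lasted 60 min (90 min for G12V), following a 60 min compound preincubation.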
(In general: In TR-FRET formats the signal depends on donor and acceptor labels being close together.)

The mark [1] stands for this setting: amplified wild-type KRAS, 2 hours.
Setting [2] is: SW-620, 2 hours compound incubation.

The structures appear in SMILES notation. Where two headings read alike, the source gives them in different places.

Chain of KRAS-G12V (P01116 with tags, fused parts or gaps isoform P01116-2 G12V): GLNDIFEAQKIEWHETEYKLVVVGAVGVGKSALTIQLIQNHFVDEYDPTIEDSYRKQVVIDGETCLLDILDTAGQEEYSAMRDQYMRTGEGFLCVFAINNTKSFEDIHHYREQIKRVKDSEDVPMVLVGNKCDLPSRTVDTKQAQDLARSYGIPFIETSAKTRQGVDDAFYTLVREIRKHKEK
Chain of KRAS-G12D (P01116 with tags, fused parts or gaps isoform P01116-2 G12D): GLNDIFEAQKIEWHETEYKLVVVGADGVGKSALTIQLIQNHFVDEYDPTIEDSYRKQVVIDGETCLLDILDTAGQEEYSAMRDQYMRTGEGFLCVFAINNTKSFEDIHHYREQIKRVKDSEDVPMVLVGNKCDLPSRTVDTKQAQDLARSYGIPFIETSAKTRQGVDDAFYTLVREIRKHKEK
Chain of KRAS-WT (P01116 with tags, fused parts or gaps isoform P01116-2): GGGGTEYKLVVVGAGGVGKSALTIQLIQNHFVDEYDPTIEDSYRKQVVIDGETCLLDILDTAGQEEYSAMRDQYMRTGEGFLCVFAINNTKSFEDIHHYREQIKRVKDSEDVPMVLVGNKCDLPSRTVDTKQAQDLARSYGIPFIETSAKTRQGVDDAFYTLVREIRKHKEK

What is called IC50 is the concentration at which inhibition is half-maximal. On to `Cc1cc2[nH]ncc2c(-c2nccc3c2sc2nc(OC[C@@]45CCCN4C[C@H](F)C5)nc(N4CCOC[C@@](C)(O)C4)c23)c1C1(C)CC1` [Ex-62, (6S)-4-(2-(((2R,7aS)-2-fluorotetrahydro-1H-pyrrolizin-7a(5H)-yl)methoxy)-8-(6-methyl-5-(1-methylcyclopropyl)-1H-indazol-4-yl)pyrido[4′,3′:4,5]thieno [2,3-d]pyrimidin-4-yl)-6-methyl-1,4-oxazepan-6-ol], for which the IC50 in the experiment with MKN-1 cells (setting [1]) was 251 nM; in the experiment on AsPC-1 cells (KRAS-G12D, 2 hours) it was 175 nM; in the experiment on SW620 cells (SW-620, KRAS-G12V, 2 hours), 131 nM; on KRAS-WT, 53.7 nM; at KRAS-G12V it was 21.7 nM; on KRAS-G12D it was 29.8 nM.
For the molecule `CN(C)C[C@@]1(COc2nc(N3CCOC[C@@](C)(O)C3)c3c(n2)sc2c(-c4c(C5(F)CC5)c(Cl)cc5[nH]ncc45)nccc23)CC1(F)F` [Ex-132, (6S)-4-(8-(6-chloro-5-(1-fluorocyclo-propyl)-1H-indazol-4-yl)-2-(((R)-1-((dimethylamino)-methyl)-2,2-di-fluorocyclopropyl)-methoxy)pyrido [4′,3′:4,5]thieno[2,3-d]pyrimidin-4-yl)-6-methyl-1,4-oxaze-pan-6-ol], the IC50 with MKN-1 cells (2 hours compound incubation) was 44.4 nM; in the experiment with AsPC-1 cells (2 hours compound incubation), 24 nM; with SW620 cells (setting [2]) it was 14.5 nM; on KRAS-WT, 15.7 nM; at KRAS-G12V it was 13.9 nM; at KRAS-G12D it was 5.45 nM.
As to `C[C@@]1(O)COCCN(c2nc(OC[C@@]34CCCN3C[C@H](F)C4)nc3sc4c(-c5c6c(cc7[nH]ncc57)CC=C6C5CC5)nccc4c23)C1` [Ex-105, (6S)-4-(8-(5-cyclopropyl-1,7-dihydrocyclopenta[f]inda-zol-4-yl)-2-(((2R,7aS)-2-fluorotetrahydro-1H-pyrrolizin-7a(5H)-yl)methoxy)pyrido[4′,3′:4,5]thieno[2,3-d]pyrimidin-4-yl)-6-methyl-1,4-oxazepan-6-ol], the IC50 in the experiment with MKN-1 cells (setting [1]) is 136 nM; with AsPC-1 cells (KRAS-G12D, 2 hours), 158 nM; in the experiment with SW620 cells (SW-620, KRAS-G12V, 2 hours) it was 80.5 nM; on KRAS-WT it was 72.2 nM; on KRAS-G12V, 37.2 nM; at KRAS-G12D, 26.7 nM.
In the case of `C[C@@]1(O)COCCN(c2nc(OC[C@@]34CCCN3C[C@H](F)C4)nc3sc4c(-c5c6cn[nH]c6cc6cccc(Cl)c56)nccc4c23)C1` [Ex-161, (6S)-4-(8-(5-chloro-1H-benzo[f]indazol-4-yl)-2-(((2R,7aS)-2-fluorotetrahydro-1H-pyrrolizin-7a(5H)-yl)methoxy)pyrido[4′,3′:4,5]thieno[2,3-d]pyrimidin-4-yl)-6-methyl-1,4-oxazepan-6-ol], the IC50 with MKN-1 cells (2 hours compound incubation) was 28.4 nM; in the experiment with AsPC-1 cells (2 hours compound incubation), 61.7 nM; with SW620 cells (setting [2]), 32.1 nM; at KRAS-WT it was 15.2 nM; on KRAS-G12V, 11.4 nM; at KRAS-G12D, 6.04 nM.
As for `Cc1cc2[nH]ncc2c(-c2nccc3c2sc2nc(OC[C@@]45CCCN4C[C@H](F)C5)nc(N4CCOCC5(CC(C)O5)C4)c23)c1C(F)(F)F` (stereo partly drawn) [Ex-199, 9-(2-(((2R,7aS)-2-fluoro-tetrahydro-1H-pyrrolizin-7a(5/7)-yl)methoxy)-8-(6-methyl-5-(trifluorometh-yl)-1H-indazol-4-yl)pyrido [4′,3′:4,5]thieno[2,3-d]pyr-imidin-4-yl)-2-methyl-1,6-dioxa-9-azaspiro[3.6] decane], the IC50 in the experiment on MKN-1 cells (2 hours compound incubation) came to 313 nM; in the experiment with AsPC-1 cells (2 hours compound incubation), 374 nM; in the experiment on SW620 cells (setting [2]) it was 190 nM; on KRAS-WT it was 287 nM; at KRAS-G12V it was 92.6 nM; at KRAS-G12D, 86.8 nM.
In the case of `C[C@@]1(O)COCCN(c2nc(OC[C@]34C[C@@H](F)CN3CC3(CC3)C4)nc3sc4c(-c5c(C6CC6)c(Cl)cc6[nH]ncc56)nccc4c23)C1` [Ex-220, (6S)-4-(8-(6-chloro-5-cyclopropyl-1H-indazol-4-yl)-2-(((6R,7a′S)-6′-fluorodihydro-1H, 3H-spiro[cyclopro-pane-1,2′-pyrrol-izin]7a′(5′H)-yl)-methoxy)pyrido [4′,3′:4,5]thieno[2,3-d]pyrimidin-4-yl)-6-methyl-1,4-oxaze-pan-6-ol], the IC50 with MKN-1 cells (2 hours compound incubation) is 171 nM; with AsPC-1 cells (2 hours compound incubation), 176 nM; in the experiment on SW620 cells (setting [2]), 130 nM; at KRAS-WT, 72.3 nM; on KRAS-G12V, 70.6 nM; at KRAS-G12D, 27.8 nM.
For `C#CC1=CCCc2cc3[nH]ncc3c(-c3nccc4c3sc3nc(OC[C@@]56CCCN5C[C@H](F)C6)nc(N5CCOC[C@@](C)(O)C5)c34)c21` [Ex-173, (6S)-4-(8-(5-ethynyl-7,8-dihydro-1H-benzo[f]indazol-4-yl)-2-(((2R,7aS)-2-fluorotetrahydro-1H-pyrrolizin-7a(5H)-yl)methoxy)pyrido[4′,3′:4,5]thieno[2,3-d]pyrimidin-4-yl)-6-methyl-1,4-oxazepan-6-ol], the IC50 was found to be 56.9 nM with MKN-1 cells (2 hours compound incubation); 161 nM with AsPC-1 cells (2 hours compound incubation); 61.1 nM with SW620 cells (setting [2]); 38.2 nM at KRAS-WT; 50.1 nM at KRAS-G12V; 18.9 nM at KRAS-G12D.
For the molecule `C[C@@]1(O)COCCN(c2nc(OC[C@]3(CN4CCC4)CC3(F)F)nc3sc4c(-c5c(C6(F)CC6)c(Cl)cc6[nH]ncc56)nccc4c23)C1` [Ex-239, (6S)-4-(2-(((R)-1-(azetidin-1-ylmethyl)-2,2-difluorocyclopropyl)methoxy)-8-(6-chloro-5-(1-fluorocyclopropyl)-1H-indazol-4-yl)pyrido[4′,3:′4,5]thieno[2,3-d]pyrimidin-4-yl)-6-methyl-1,4-oxazepan-6-ol], the IC50 with MKN-1 cells (2 hours compound incubation) is 33.7 nM; with AsPC-1 cells (2 hours compound incubation), 54.5 nM; in the experiment with SW620 cells (setting [2]), 29.4 nM; on KRAS-WT, 8.2 nM; on KRAS-G12V it was 11.4 nM; at KRAS-G12D, 1.85 nM.
As to `C[C@@]1(O)COCCN(c2nc(OC[C@@]34CCCN3C[C@H](F)C4)nc3sc4c(-c5c6c(cc7[nH]ncc57)CCC65CC5)nccc4c23)C1` [Ex-88, (6S)-4-(8-(6,7-dihydro-1H-spiro[cyclopenta[f]indazole-5,1′-cyclopropan]-4-yl)-2-(((2R,7aS)-2-fluorotetrahydro-1H-pyrrolizin-7a(5H)-yl)methoxy)pyrido[4′,3′:4,5]thi-eno[2,3-d]pyrimidin-4-yl)-6-methyl-1,4-oxazepan-6-ol], the IC50 in the experiment on MKN-1 cells (setting [1]) stood at 122 nM; in the experiment on AsPC-1 cells (KRAS-G12D, 2 hours), 159 nM; in the experiment on SW620 cells (SW-620, KRAS-G12V, 2 hours) it was 36.1 nM; at KRAS-WT it was 37.2 nM; at KRAS-G12V it was 42.5 nM; at KRAS-G12D, 18.5 nM.
